Where two headings read alike, the source gives them in different places. Where a SMILES comes first, the peptide text is derived from it. Bridges are numbered along the chain shown (N, C = ends). [ ]: non-standard residue; d: D form. Phe(4-Cl) = N[C@@H](Cc1ccc(Cl)cc1)C(=O)O
Assays:
secretion of glucagon = type: in vivo, Male Sprague-Dawley-CD rats
Experimental: (§1) In vivo Bioassay: Male Sprague-Dawley-CD rats weighing 180-200 g housed in temperature and humidity controlled quarters with 14 h light and 10 h dark (light 0700-[…]) were used in all experiments. Animals were fed a standard ration and tap water ad libitum. Experiments were carried out at least 5 days after arrival of rats from the supplier between the hours 1400 and 1600. After ether anesthesia, peptides or saline were administered in a volume of 0.2 ml via the external jugular vein. Animals remained anesthetized until the time of blood collection from the portal vein. Blood collection was performed at various times after administration of the peptide or saline. The blood samples were placed into chilled tubes containing 10 mg EDTA and 50 μl of 2 M Benzamidine per ml of blood.
(§2) All experiments were carried on in a randomized block design. Following analysis of variance difference between treatmments were determined by the multiple range tests of Dunnett and Duncan. Potency values were calculated from four or six point bioassays.

secretion of insulin = type: in vivo, Male Sprague-Dawley-CD rats
Experimental: as §1, §2

[1] = test system: secretion of growth hormone
Experimental: GH determinations were performed on tissue culture media utilizing the following reagents: NIAMDD rat GH standard (GH-RP-1), NIAMDD monkey anti-rat GH (GH-Serum-3), and highly purified rat GH for iodination.

[2] = somatostatin = 100, peptide via external jugular vein, blood from portal vein, four or six point bioassays

Compound | Relative potency to inhibit the secretion of GLUCAGON (secretion of glucagon; [2]) | Relative potency to inhibit the secretion of INSULIN (secretion of insulin; [2]) | Relative potency to inhibit the secretion of GH (growth hormone) ([1]; somatostatin = 100, GH in tissue culture media, four or six point bioassays) | Relative potency to inhibit the secretion of GLUCAGON (secretion of glucagon; rat, in vivo) | Relative potency to inhibit the secretion of INSULIN (secretion of insulin; rat, in vivo) | Relative potency to inhibit the secretion of GH (growth hormone) [1]
C[C@H](N)C(=O)NCC(=O)N[C@H]1CSSC[C@@H](C(=O)O)NC(=O)[C@H](CO)NC(=O)[C@H]([C@@H](C)O)NC(=O)[C@H](Cc2ccccc2)NC(=O)[C@H]([C@@H](C)O)NC(=O)[C@H](CCCCN)NC(=O)[C@H](Cc2c[nH]c3ccccc23)NC(=O)[C@H](Cc2ccccc2)NC(=O)[C@H](Cc2ccccc2)NC(=O)[C@H](CC(N)=O)NC(=O)[C@H](CCCCN)NC1=O [Somatostatin (SS), Somatostatin, reference compound] | 100 | 100 | 100 | – | – | –
C[C@H](N)C(=O)NCC(=O)N[C@H]1CSSC[C@@H](C(=O)O)NC(=O)[C@H](CO)NC(=O)[C@H]([C@@H](C)O)NC(=O)[C@H](Cc2ccccc2)NC(=O)[C@H]([C@@H](C)O)NC(=O)[C@H](CCCCN)NC(=O)[C@H](Cc2c[nH]c3ccccc23)NC(=O)[C@H](Cc2ccccc2)NC(=O)[C@H](Cc2ccc(Cl)cc2)NC(=O)[C@H](CC(N)=O)NC(=O)[C@H](CCCCN)NC1=O [[P Cl Phe^6]--SS] | – | – | – | 100 | 100 | –
C[C@H](N)C(=O)NCC(=O)N[C@H]1CSSC[C@@H](C(=O)O)NC(=O)[C@H](CO)NC(=O)[C@H]([C@@H](C)O)NC(=O)[C@H](Cc2ccc(I)cc2)NC(=O)[C@H]([C@@H](C)O)NC(=O)[C@H](CCCCN)NC(=O)[C@H](Cc2c[nH]c3ccccc23)NC(=O)[C@H](Cc2ccccc2)NC(=O)[C@H](Cc2ccccc2)NC(=O)[C@H](CC(N)=O)NC(=O)[C@H](CCCCN)NC1=O [[P I Phe^11]--SS] | – | – | – | 900 | 950 | 100
C[C@@H](O)[C@@H]1NC(=O)[C@H](CCCCN)NC(=O)[C@@H](Cc2c[nH]c3ccccc23)NC(=O)[C@H](Cc2ccccc2)NC(=O)[C@H](Cc2ccc(Cl)cc2)NC(=O)[C@@H](N)CSSC[C@@H](C(=O)O)NC(=O)[C@H](Cc2ccc(Cl)cc2)NC1=O [Des--AA^1,2,4,5,12,13 --[P Cl Phe^6,11]--D-Trp^8 --SS] (H-C[Phe(4-Cl)]F[dW]KT[Phe(4-Cl)]C-OH; disulfide 1-8) | – | – | – | > 1 | 27 | –
C[C@H](N)C(=O)NCC(=O)N[C@H]1CSSC[C@@H](C(=O)O)NC(=O)[C@H](CO)NC(=O)[C@H]([C@@H](C)O)NC(=O)[C@H](Cc2ccc(I)cc2)NC(=O)[C@H]([C@@H](C)O)NC(=O)[C@H](CCCCN)NC(=O)[C@@H](Cc2c[nH]c3ccccc23)NC(=O)[C@H](Cc2ccccc2)NC(=O)[C@H](Cc2ccccc2)NC(=O)[C@H](CC(N)=O)NC(=O)[C@H](CCCCN)NC1=O [[P I Phe^11]--D-Trp^8 --SS] | – | – | – | 800 | 33 | –
C[C@H](N)C(=O)NCC(=O)N[C@H]1CSSC[C@@H](C(=O)O)NC(=O)[C@H](CO)NC(=O)[C@H]([C@@H](C)O)NC(=O)[C@H](Cc2ccccc2)NC(=O)[C@H]([C@@H](C)O)NC(=O)[C@H](CCCCN)NC(=O)[C@@H](Cc2c[nH]c3ccccc23)NC(=O)[C@H](Cc2ccc(I)cc2)NC(=O)[C@H](Cc2ccccc2)NC(=O)[C@H](CC(N)=O)NC(=O)[C@H](CCCCN)NC1=O [[P I Phe^7]--D-Trp^8 --SS] | – | – | – | 100 | 100 | –
C[C@H](N)C(=O)NCC(=O)N[C@H]1CSSC[C@@H](C(=O)O)NC(=O)[C@H](CO)NC(=O)[C@H]([C@@H](C)O)NC(=O)[C@H](Cc2ccccc2)NC(=O)[C@H]([C@@H](C)O)NC(=O)[C@H](CCCCN)NC(=O)[C@@H](Cc2c[nH]c3ccccc23)NC(=O)[C@H](Cc2ccccc2)NC(=O)[C@H](Cc2ccc(I)cc2)NC(=O)[C@H](CC(N)=O)NC(=O)[C@H](CCCCN)NC1=O [[P I Phe^6]--D-Trp^8 --SS] | – | – | – | 100 | 100 | –
C[C@H](N)C(=O)NCC(=O)N[C@H]1CSSC[C@@H](C(=O)O)NC(=O)[C@H](CO)NC(=O)[C@H]([C@@H](C)O)NC(=O)[C@H](Cc2ccc(Cl)cc2)NC(=O)[C@H]([C@@H](C)O)NC(=O)[C@H](CCCCN)NC(=O)[C@H](Cc2c[nH]c3ccccc23)NC(=O)[C@H](Cc2ccc(Cl)cc2)NC(=O)[C@H](Cc2ccc(Cl)cc2)NC(=O)[C@H](CC(N)=O)NC(=O)[C@H](CCCCN)NC1=O [[P Cl Phe^6,7,11]--SS] | – | – | – | 900 | 800 | 78
C[C@H](N)C(=O)NCC(=O)N[C@H]1CSSC[C@@H](C(=O)O)NC(=O)[C@@H](CO)NC(=O)[C@H]([C@@H](C)O)NC(=O)[C@H](Cc2ccc(Cl)cc2)NC(=O)[C@H]([C@@H](C)O)NC(=O)[C@H](CCCCN)NC(=O)[C@@H](Cc2c[nH]c3ccccc23)NC(=O)[C@H](Cc2ccc(Cl)cc2)NC(=O)[C@H](Cc2ccc(Cl)cc2)NC(=O)[C@H](CCCCN)NC1=O [Des--Asn^5 --[P Cl Phe^6,7,11]--D-Trp^8 --D--Ser^13 --SS] (H-AGCK[Phe(4-Cl)][Phe(4-Cl)][dW]KT[Phe(4-Cl)]T[dS]C-OH; disulfide 3-13) | – | – | – | > 1 | 127 | –

— US4211693A, “Peptides with para-substituted phenylalanine” (The Salk Institute for Biological Studies, priority 1978, dated 1980)
